In patent US10316038B2, “Pyrrolopyrimidine ITK inhibitors for treating inflammation and cancer” (ACLARIS THERAPEUTICS, INC., priority 2017, dated 2019):
Read-outs that look alike come from different tables or passages of the source.

Key:
ITK = molecular target: T1, ITK (Homo sapiens, UniProt Q08881); test: ITK inhibitor binding potency (LanthaScreen competitive binding assay); conditions: TR-FRET competitive binding, 10 nM ITK, 50 nM kinase tracer-236; pre-incubation condition not given; read-out: ITK Inhibition IC50
T1 sequence (Q08881 1-620): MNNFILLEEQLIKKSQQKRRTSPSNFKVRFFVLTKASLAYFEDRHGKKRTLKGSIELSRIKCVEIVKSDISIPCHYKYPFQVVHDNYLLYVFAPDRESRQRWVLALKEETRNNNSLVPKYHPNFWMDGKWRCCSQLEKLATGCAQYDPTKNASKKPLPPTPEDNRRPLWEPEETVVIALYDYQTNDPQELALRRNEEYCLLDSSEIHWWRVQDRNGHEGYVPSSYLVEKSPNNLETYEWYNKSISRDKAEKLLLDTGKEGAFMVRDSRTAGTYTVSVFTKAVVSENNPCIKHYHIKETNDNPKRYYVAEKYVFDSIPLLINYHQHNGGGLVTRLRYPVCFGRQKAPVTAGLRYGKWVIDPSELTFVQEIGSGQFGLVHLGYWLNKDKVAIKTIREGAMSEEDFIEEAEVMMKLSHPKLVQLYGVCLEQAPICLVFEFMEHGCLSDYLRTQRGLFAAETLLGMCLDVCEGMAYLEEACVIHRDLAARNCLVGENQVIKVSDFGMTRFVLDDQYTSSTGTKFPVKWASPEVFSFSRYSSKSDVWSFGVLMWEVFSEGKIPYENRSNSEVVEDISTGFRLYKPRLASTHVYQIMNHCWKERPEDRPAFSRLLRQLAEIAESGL
Description: The ability of candidate compounds to interact with ITK is quantitated by a competitive binding assay using the LanthaScreen technology developed by Life Technologies. This assay is based on the binding of a proprietary, Alexa Fluor™ 647-labeled, ATP-competitive kinase inhibitor (kinase tracer-236) to the ITK expression construct in the presence of a Europium-conjugated antibody, resulting in a FRET (fluorescence resonance energy transfer) signal. Displacement of the kinase tracer by compound results in a lower emission ratio upon excitation of the Europium chelate. Candidate compounds are designed as potential irreversible inhibitors of ITK, capable of ligating to an active site cysteine residue resulting in time dependent covalent binding. The time dependent nature of irreversible inhibition is investigated by performing the binding assay with and without a pre-incubation of compound and ITK. […] The inhibitory potency of candidate compounds is measured in 20 mM HEPES pH 7.5, 10 mM MgCl2, 0.01% BSA, 0.0005% Tween-20, and 2% DMSO in the presence of 10 nM ITK, 2 nM Eu-anti-GST antibody, and 50 nM kinase tracer-236 using a 384-well plate format. Background signal is defined in the absence of ITK and uninhibited signal is defined in the presence of vehicle (2% DMSO) alone. Compounds were evaluated in an 11 point dose-response ranging from 20 uM to 0.34 nM. The binding assays are performed under two preincubation conditions to evaluate time dependence of inhibition. For the pre-incubation assay, ITK and Eu-anti-GST antibody are pre-incubated with compound or vehicle for two hours prior to the addition of kinase tracer. The non-preincubated assay is run under conditions where ITK and Eu-anti-GST antibody are added to a mixture of compound and kinase tracer. IC50 values of compounds are determined using a 4 parameter logistical fit of emission ratio as a function of the concentration of compound.

[1] = tested on: ITK phosphorylation of its substrate, PLCγ1, at Y783; test: ITK target modulation assay (phospho-Y783 PLCγ1 immunoblot in Jurkat T cells); type: cell-based; conditions: 2 hours compound, CD3/CD28 Dynabeads stimulation 100 sec, anti-phospho-Y783 PLCγ1 immunoblot, read-out: PLC-γ Inhibition IC50
Procedure: Target modulation was based upon the ability of a compound to inhibit ITK phosphorylation of its substrate, PLCγ1, at […]. Human Jurkat T cells were placed in snap-cap polypropylene tubes at 4 million per tube in 800 μL medium (RPMI1640 with 10% heat inactivated serum and […] 2-mercaptoethanol and supplemented with glutamine/penicillin/streptomycin). Compounds were added as 100 μL of 10× working stock solutions in medium with 1% DMSO (or medium with 1% DMSO for controls) and placed in a 37° C. incubator for 2 hours. Stimulation was carried out using CD3/CD28 Dynabeads to activate the T cell receptor and mimic antigen presenting cells. Beads were added for 100 sec at a ratio of 1 bead per cell, in 100 μL medium (or medium alone for unstimulated control). Starting at 70 sec, cells and beads were pelleted in a microfuge for 15 sec, the supernatant aspirated, and 50 μL lysis buffer was added per tube and mixed with the pellet at the 100 sec time point. Tubes were placed on a rotator for 30 min at 4° C., and cell debris was pelleted in a microfuge. Supernatant was mixed 1:1 with 2× Sample Buffer and subjected to SDS-polyacrylamide gel electrophoresis. After transfer to nitrocellulose, immunoblotting was done with anti-phospho-[…] PLCγ1 antibody. Immunoblots were visualized with ECL using horseradish peroxidase conjugated secondary antibody.

| SMILES | IC50 (ITK) | IC50 ([1]; Homo sapiens, Jurkat, 2 h) | IC50 ([1]; Human Jurkat T cells) |
| --- | --- | --- | --- |
| COc1cc(NC(=O)/C=C/CN(C)C)cc(-c2cnc3[nH]cc(-c4ccnc(F)c4)c3c2)c1 [Example 38, (E)-4-(dimethyl-amino)-N-(3-(3-(2-fluoropyridin-4-yl)-1H-pyrrolo-[2,3-b]pyridin-5-yl)-5-methoxy-phenyl)but-2-enamide] | ≤ 0.1 µM | ≤ 1 µM | – |
| C=CC(=O)Nc1cc(OC)cc(-c2cnc3[nH]cc(-c4ccnc(OC)c4)c3c2)c1 [Example 26, N-(3-methoxy-5-(3-(2-methoxy-pyridin-4-yl)-1H-pyrrolo[2,3-b]-pyridin-5-yl)-phenyl)acrylamide] | ≤ 0.1 µM | ≤ 1 µM | – |
| C=CC(=O)N(C)c1cncc(-c2cnc3[nH]cc(-c4cccc(C#N)c4)c3c2)c1 [Example 66, N-(5-(3-(3-cyano-phenyl)-1H-pyrrolo[2,3-b]-pyridin-5-yl)-pyridin-3-yl)-N-methylacrylamide] | ≤ 0.1 µM | ≤ 1 µM | – |
| C=CC(=O)Nc1cc(F)cc(-c2cnc3[nH]cc(-c4cccc(C#N)c4)c3c2)c1 [Example 69, N-(3-(3-(3-cyano-phenyl)-1H-pyrrolo[2,3-b]-pyridin-5-yl)-5-fluorophenyl)-acrylamide] | ≤ 0.1 µM | > 5 µM | – |
| COc1cc(NC(=O)/C=C/CN(C)C)cc(-c2cnc3[nH]cc(-c4ccnc5[nH]ccc45)c3c2)c1 [Example 31, (E)-N-(3-(1H,1′H-[3,4′-bipyrrolo[2,3-b]pyridin]-5-yl)-5-methoxyphenyl)-4-(dimethylamino)-but-2-enamide] | ≤ 0.1 µM | ≤ 1 µM | – |
| CN(C)C/C=C/C(=O)N(C)c1cncc(-c2cnc3[nH]cc(-c4cccc(C#N)c4)c3c2)c1 [Example 72, (E)-N-(5-(3-(3-cyanophenyl)-1H-pyrrolo[2,3-b]-pyridin-5-yl)-pyridin-3-yl)-4-(dimethylamino)-N-methylbut-2-enamide] | ≤ 0.1 µM | 1 to 5 µM | – |
| C=CC(=O)Nc1cc(-c2cnc3[nH]cc(-c4ccnc(C#N)c4)c3c2)cc(-c2cnn(C)c2)c1 [Example 21, N-(3-(3-(2-cyano-pyridin-4-yl)-1H-pyrrolo[2,3-b]pyridin-5-yl)-5-(1-methyl-1H-pyrazol-4-yl)-phenyl)acrylamide] | ≤ 0.1 µM | ≤ 1 µM | – |
| COc1cc(NC(=O)/C=C/CN(C)C)cc(-c2cnc3[nH]cc(-c4ccncn4)c3c2)c1 [Example 52, (E)-4-(dimethyl-amino)-N-(3-methoxy-5-(3-(pyrimidin-4-yl)-1H-pyrrolo-[2,3-b]pyridin-5-yl)phenyl)but-2-enamide] | ≤ 0.1 µM | 1 to 5 µM | – |
| CN(C)C/C=C/C(=O)Nc1cncc(-c2cnc3[nH]cc(-c4ccnc(C#N)c4)c3c2)c1 [Example 61, (E)-N-(5-(3-(2-cyanopyridin-4-yl)-1H-pyrrolo-[2,3-b]pyridin-5-yl)pyridin-3-yl)-4-(dimethyl-amino)but-2-enamide] | ≤ 0.1 µM | – | 1 to 5 µM |
| CN(C)C/C=C/C(=O)Nc1cc(-c2cnc3[nH]cc(-c4ccnc5c4ccn5C)c3c2)cc(C(F)(F)F)c1 [Example 55, (E)-4-(dimethyl-amino)-N-(3-(1′-methyl-1H,1′H-[3,4′-bipyrrolo[2,3-b]pyridin]-5-yl)-5-(trifluoro-methyl)phenyl)-but-2-enamide] | ≤ 0.1 µM | ≤ 1 µM | – |
| C=CC(=O)N(C)c1cc(OC)cc(-c2cnc3[nH]cc(-c4cccc(C#N)c4)c3c2)c1 [Example 65, N-(3-(3-(3-cyano-phenyl)-1H-pyrrolo[2,3-b]-pyridin-5-yl)-5-methoxyphenyl)-N-methylacryl-amide] | ≤ 0.1 µM | ≤ 1 µM | – |
| CN(C)C/C=C/C(=O)Nc1cccc(-c2cnc3[nH]cc(-c4cncc(C#N)c4)c3c2)c1 [Example 11, (E)-N-(3-(3-(5-cyanopyridin-3-yl)-1H-pyrrolo-[2,3-b]pyridin-5-yl)phenyl)-4-(dimethylamino)-but-2-enamide] | ≤ 0.1 µM | > 5 µM | – |
| C=CC(=O)Nc1cc(OC)cc(-c2cnc3[nH]cc(-c4ccnc(F)c4)c3c2)c1 [Example 29, N-(3-(3-(2-fluoro-pyridin-4-yl)-1H-pyrrolo[2,3-b]-pyridin-5-yl)-5-methoxyphenyl)-acrylamide] | ≤ 0.1 µM | ≤ 1 µM | – |
| C=CC(=O)Nc1cc(OC)cc(-c2cnc3[nH]cc(-c4cccc(C#N)c4)c3c2)c1 [Example 16, N-(3-(3-(3-cyano-phenyl)-1H-pyrrolo[2,3-b]-pyridin-5-yl)-5-methoxyphenyl)-acrylamide] | ≤ 0.1 µM | ≤ 1 µM | – |

The next lines start with the values.

| IC50 (ITK) | IC50 ([1]; Homo sapiens, Jurkat, 2 h) | IC50 ([1]; Human Jurkat T cells) | SMILES |
| --- | --- | --- | --- |
| ≤ 0.1 µM | ≤ 1 µM | – | C=CC(=O)Nc1cc(-c2cnc3[nH]cc(-c4cnc(OC)nc4)c3c2)cc(C(F)(F)F)c1 [Example 68, N-(3-(3-(2-methoxy-pyrimidin-5-yl)-1H-pyrrolo[2,3-b]pyridin-5-yl)-5-(trifluoromethyl)-phenyl)acrylamide] |
| ≤ 0.1 µM | ≤ 1 µM | – | CN(C)C/C=C/C(=O)Nc1cncc(-c2cnc3[nH]cc(-c4cccc(C#N)c4)c3c2)c1 [Example 20, (E)-N-(5-(3-(3-cyanophenyl)-1H-pyrrolo[2,3-b]pyridin-5-yl)pyridin-3-yl)-4-(dimethyl-amino)but-2-enamide] |
| ≤ 0.1 µM | ≤ 1 µM | – | C=CC(=O)Nc1cccc(-c2cnc3[nH]cc(-c4ccnc(C#N)c4)c3c2C)c1 [Example 44, N-(3-(3-(2-cyano-pyridin-4-yl)-4-methyl-1H-pyrrolo[2,3-b]-pyridin-5-yl)-phenyl)acrylamide] |
| ≤ 0.1 µM | ≤ 1 µM | – | C=CC(=O)Nc1cncc(-c2cnc3[nH]cc(-c4ccncn4)c3c2)c1 [Example 50, N-(5-(3-(pyrimidin-4-yl)-1H-pyrrolo-[2,3-b]pyridin-5-yl)pyridin-3-yl)acrylamide] |
| ≤ 0.1 µM | ≤ 1 µM | – | C=CC(=O)Nc1cc(OC)cc(-c2cnc3[nH]cc(-c4ccncn4)c3c2)c1 [Example 30, N-(3-methoxy-5-(3-(pyrimidin-4-yl)-1H-pyrrolo-[2,3-b]pyridin-5-yl)phenyl)-acrylamide] |
| ≤ 0.1 µM | ≤ 1 µM | – | C=CC(=O)Nc1cncc(-c2cnc3[nH]cc(-c4ccnc(OC)c4)c3c2)c1 [Example 17, N-(5-(3-(2-methoxypyridin-4-yl)-1H-pyrrolo-[2,3-b]pyridin-5-yl)pyridin-3-yl)-acrylamide] |
| ≤ 1 µM | 1 to 5 µM | – | CN(C)C/C=C/C(=O)Nc1cc(-c2cnc3[nH]cc(-c4ccnc5[nH]ccc45)c3c2)cc(C(F)(F)F)c1 [Example 54, (E)-N-(3-(1H,1′H-[3,4′-bipyrrolo-[2,3-b]pyridin]-5-yl)-5-(trifluoro-methyl)phenyl)-4-(dimethylamino)-but-2-enamide] |
| ≤ 0.1 µM | ≤ 1 µM | – | CN(C)C/C=C/C(=O)Nc1cc(-c2cnc3[nH]cc(-c4ccncn4)c3c2)cc(C(F)(F)F)c1 [Example 49, (E)-4-(dimethyl-amino)-N-(3-(3-(pyrimidin-4-yl)-1H-pyrrolo[2,3-b]pyridin-5-yl)-5-(trifluoro-methyl)phenyl)-but-2-enamide] |
